Test [1] has as its system cultivated fibroblast derived from a patient of Fabry disease. The experiment in a line: Simultaneous addition of α-NAGA mutant and DGJ to cultivated fibroblast derived from patient of Fabry disease. The class given is cell-based, human. On the procedure: A cultivated fibroblast derived from a patient of Fabry disease was cultured at 37° C. under a 5% carbon dioxide environment with use of an F-10 medium to which a 10% fetal calf serum and an antibiotic substance had been added. First, concentration dependence of DGJ with respect to uptake efficiency of an α-NAGA mutant was analyzed. The cells were seeded to a 12-well plate at 1.0×10^5 cells/well. Then, the medium was exchanged with a medium containing 1 μg/mL of an α-NAGA mutant and any of concentrations (0, 1, 10, and 100 μM) of DGJ, and cultivation was carried out for 24 hours. The cells were cleaned three times with PBS, then treated with use of trypsin, and then collected. 20 mM MES (pH 6.0) containing Complete Mini (Roche) was added to the collected cells, and the cells were then subjected to an ultrasonic treatment. The homogenate thus obtained was subjected to centrifugal separation under conditions of 4° C. and 12,000 rpm, and the obtained supernatant liquid was used as samples for enzyme activity measurement, protein quantification, and Western blotting.
Next, in order to confirm time dependence, 1 μg/mL of an α-NAGA mutant and 10 μM of DGJ were added to the cells, and cultivation was carried out for 24 hours, 48 hours, and 72 hours. Then, enzyme activity measurement, protein quantification, and Western blotting were carried out. […]

In another test the target is T1, α-NAGA mutant (Homo sapiens, UniProt P17050, A191L/S188E).
T1 sequence (P17050 with tags, fused parts or gaps S188E/A191L): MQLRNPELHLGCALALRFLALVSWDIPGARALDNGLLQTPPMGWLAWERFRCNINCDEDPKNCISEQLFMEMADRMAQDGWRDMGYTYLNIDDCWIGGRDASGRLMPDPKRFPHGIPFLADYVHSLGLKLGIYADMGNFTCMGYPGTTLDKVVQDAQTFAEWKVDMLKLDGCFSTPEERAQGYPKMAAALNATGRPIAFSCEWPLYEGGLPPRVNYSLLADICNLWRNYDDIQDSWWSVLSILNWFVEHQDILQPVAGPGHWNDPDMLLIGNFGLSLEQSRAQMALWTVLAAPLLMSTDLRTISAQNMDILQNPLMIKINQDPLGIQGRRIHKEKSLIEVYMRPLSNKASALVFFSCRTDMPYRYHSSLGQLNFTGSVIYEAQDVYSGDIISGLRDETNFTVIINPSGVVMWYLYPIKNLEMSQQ
The experiment in a line: Calculation of inhibition constant Ki (Lineweaver-Burk plot). Particulars: substrate 1-8 mM; DGJ 100-400 nM, GBS 200-800 nM; pH 4.6; FIG. 2. The class given is biochemical. How it is done:
Enzymatic analysis was carried out by using, as a reaction liquid, 50 ng of an α-NAGA mutant and 0.1 M phosphate-citrate buffer (pH 4.6) in which a 4-methylumbelliferylα-D-galactopyranoside substrate was dissolved at any of concentrations (1, 2, 4, 6, and 8 mM) (the total amount was 50 μl). In measuring inhibitory activity, reaction was carried out with a reaction liquid which contained DGJ at a concentration of 100, 200, or 400 nM or GBS at a concentration of 200, 400, or 800 nM. After the reaction was carried out at 37° C. for 10 minutes, 950 μl of 0.2 M glycine buffer (pH 10.7) was added to stop the reaction. Then, released 4-methylumbelliferone was measured at an excitation wavelength of 355 nm and at a fluorescence wavelength of 460 nm with use of Wallac 1420 ARVO MX Multilabel Counter. From these values, a Lineweaver-Burk plot was prepared and an inhibition constant Ki was calculated from slopes in the plot which correspond to respective concentrations of the inhibitor.

`OCC1NCC(O)C(O)C1O` [DGJ, (2R,3S,4R,5S)-2-(hydroxymethyl)piperdine-3,4,5-triol]: the “α-NAGA mutant enzyme activity in cells” value in test [1] (1 μg/mL α-NAGA mutant plus 0-100 μM DGJ 24 hours, or 10 μM DGJ 24-72 hours, FIG. 6(a), 7(a)) is “enzyme activity was improved”. In addition, the “amount of protein of the α-NAGA mutant taken in a cell (Western blotting)” value in test [1] (simultaneous addition of DGJ versus no DGJ, FIG. 6(b), 7(b)) was “confirmed to be increased”. In addition, at α-NAGA mutant, the “inhibition pattern from inhibition constant Ki” value is “inhibitory activity by competitive inhibition”.

(Values after patent US20200115698A1, “PHARMACEUTICAL COMBINATION FOR TREATMENT OF FABRY DISEASE AND USE THEREOF” (MEIJI PHARMACEUTICAL UNIVERSITY, priority 2017, published 2020).)
